ChEMBL document CHEMBL5236630, “Discovery of selective platelet-derived growth factor receptor-beta (PDGFR-β) bifunctional small-molecule degraders” (Bioorg Med Chem, 2023)
The source made the active and inactive calls. No cut-off for these calls is given here.

Assays:
HEK293 = assay: Cytotoxicity against human HEK293 cells assessed as reduction in cell viability at 50 uM incubated for 48 hrs by MTT assay; format: toxicity, cell-based; settings: hek293, 48 h
[1] = biological target: Platelet-derived growth factor receptor beta (Homo sapiens) (UniProt P09619); assay: Protac activity at PDGFRbeta in human U87 cells assessed as reduction in PDGFRbeta protein level at 0.1 to 10 uM incubated for 48 to 72 hrs by Western blot analysis; format: cell-based; settings: dose 0.1-10 µM, time 48-72 hrs
[2] = biological target: Platelet-derived growth factor receptor beta (Homo sapiens) (UniProt P09619); assay: Protac activity at PDGFRbeta in human U87 cells assessed as reduction in PDGFRbeta protein level at 10 uM incubated for 48 hrs by Western blot analysis; format: cell-based
[3] = biological target: Platelet-derived growth factor receptor beta (Homo sapiens) (UniProt P09619); assay: Protac activity at PDGFRbeta in human U87 cells assessed as reduction in PDGFRbeta protein level at 10 uM incubated for 72 hrs by Western blot analysis; format: cell-based; set-up: scale not given: the % may be the effect or the level left
[4] = biological target: Platelet-derived growth factor receptor beta (Homo sapiens) (UniProt P09619); assay: Protac activity at PDGFRbeta in human U87 cells assessed as increase in VEGFR-2 protein level at 10 uM incubated for 72 hrs by Western blot analysis; format: cell-based
EA.hy 926 = assay: Antiproliferative activity against human EA.hy 926 cells assessed as reduction in cell viability incubated for 48 hrs by MTT assay; format: functional, cell-based; settings: EA.hy 926, 48 h
HepG2 = assay: Antiproliferative activity against human HepG2 cells assessed as reduction in cell viability incubated for 48 hrs by MTT assay; format: functional, cell-based; settings: HepG2, 48 h
[5] = Antiproliferative activity against human U87 cells assessed as reduction in cell viability incubated for 48 hrs by MTT assay; format: functional, cell-based, U-87MG ATCC; settings: U-87 MG
[6] = biological target: T1, von Hippel-Lindau disease tumor suppressor/Platelet-derived growth factor receptor beta (Homo sapiens) (UniProt P09619+P40337); assay: Protac activity at VHL/PDGFRbeta in human U87 cells assessed as reduction in PDGFRbeta protein level at 0.1 to 15 uM incubated for 72 hrs by Western blot analysis; format: cell-based; settings: dose 0.1-15 µM
[7] = biological target: Serine/threonine-protein kinase B-raf (Homo sapiens) (UniProt P15056); assay: Protac activity at BRAF in human EA.hy 926 cells assessed decrease in BRAF level at 10 uM incubated for 72 hrs by Western blot analysis; format: cell-based
[8] = biological target: T1, von Hippel-Lindau disease tumor suppressor/Platelet-derived growth factor receptor beta (Homo sapiens); assay: Protac activity at VHL/PDGFRbeta in human U87 cells assessed as reduction in PDGFRbeta protein level at 10 uM incubated for 4 to 16 hrs by Western blot analysis; format: cell-based; settings: time 4-16 hrs
[9] = biological target: T1, von Hippel-Lindau disease tumor suppressor/Platelet-derived growth factor receptor beta (Homo sapiens); assay: Protac activity at VHL/PDGFRbeta in human U87 cells assessed as reduction in PDGFRbeta protein level at 10 uM preincubated with VH032 for 2hrs followed by compound treatment and measured after 48 hrs by Western blot analysis; format: cell-based
[10] = biological target: T1, von Hippel-Lindau disease tumor suppressor/Platelet-derived growth factor receptor beta (Homo sapiens); assay: Protac activity at VHL/PDGFRbeta in human U87 cells assessed as reduction in PDGFRbeta protein level at 10 uM preincubated with sorafenib for 2hrs followed by compound treatment and measured after 48 hrs by Western blot analysis; format: cell-based
[11] = biological target: T1, von Hippel-Lindau disease tumor suppressor/Platelet-derived growth factor receptor beta (Homo sapiens); assay: Protac activity at VHL/PDGFRbeta in human U87 cells assessed as reduction in PDGFRbeta protein level at 10 uM preincubated with MG-132 for 2hrs followed by compound treatment and measured after 48 hrs by Western blot analysis; format: cell-based
[12] = biological target: T1, von Hippel-Lindau disease tumor suppressor/Platelet-derived growth factor receptor beta (Homo sapiens); assay: Protac activity at VHL/PDGFRbeta in human U87 cells assessed as reduction in PDGFRbeta protein level at 10 uM preincubated with Carfilzomib for 2hrs followed by compound treatment and measured after 48 hrs by Western blot analysis; format: cell-based
[13] = biological target: T1, von Hippel-Lindau disease tumor suppressor/Platelet-derived growth factor receptor beta (Homo sapiens); assay: Protac activity at VHL/PDGFRbeta in human U87 cells assessed as reduction in PDGFRbeta protein level at 10 uM preincubated with Leupeptin for 2hrs followed by compound treatment and measured after 48 hrs by Western blot analysis; format: cell-based
[14] = Induction of apoptosis in human U87 cells assessed as necrotic cells at 0.1 uM incubated for 48 hrs by Annexin-V/PI staining based flow cytometry (Rvb= 1.13%); format: functional, U-87MG ATCC
[15] = Induction of apoptosis in human U87 cells assessed as necrotic cells at 1 uM incubated for 48 hrs by Annexin-V/PI staining based flow cytometry (Rvb= 1.13%); format: functional, U-87MG ATCC
[16] = Induction of apoptosis in human U87 cells assessed as necrotic cells at 5 uM incubated for 48 hrs by Annexin-V/PI staining based flow cytometry (Rvb= 1.13%); format: functional, U-87MG ATCC
[17] = Induction of apoptosis in human U87 cells assessed as necrotic cells at 10 uM incubated for 48 hrs by Annexin-V/PI staining based flow cytometry (Rvb= 1.13%); format: functional, U-87MG ATCC
[18] = Induction of apoptosis in human U87 cells assessed as necrotic cells at 20 uM incubated for 48 hrs by Annexin-V/PI staining based flow cytometry (Rvb= 1.13%); format: functional, U-87MG ATCC
[19] = Induction of apoptosis in human U87 cells assessed as early apoptotic cells at 0.1 uM incubated for 48 hrs by Annexin-V/PI staining based flow cytometry (Rvb= 2.74%); format: functional, U-87MG ATCC
[20] = Induction of apoptosis in human U87 cells assessed as early apoptotic cells at 1 uM incubated for 48 hrs by Annexin-V/PI staining based flow cytometry (Rvb= 2.74%); format: functional, U-87MG ATCC
[21] = Induction of apoptosis in human U87 cells assessed as early apoptotic cells at 5 uM incubated for 48 hrs by Annexin-V/PI staining based flow cytometry (Rvb= 2.74%); format: functional, U-87MG ATCC
[22] = Induction of apoptosis in human U87 cells assessed as early apoptotic cells at 10 uM incubated for 48 hrs by Annexin-V/PI staining based flow cytometry (Rvb= 2.74%); format: functional, U-87MG ATCC
[23] = Induction of apoptosis in human U87 cells assessed as early apoptotic cells at 20 uM incubated for 48 hrs by Annexin-V/PI staining based flow cytometry (Rvb= 2.74%); format: functional, U-87MG ATCC
[24] = Induction of apoptosis in human U87 cells assessed as late apoptotic cells at 0.1 uM incubated for 48 hrs by Annexin-V/PI staining based flow cytometry (Rvb= 2.97%); format: functional, U-87MG ATCC
[25] = Induction of apoptosis in human U87 cells assessed as late apoptotic cells at 1 uM incubated for 48 hrs by Annexin-V/PI staining based flow cytometry (Rvb= 2.97%); format: functional, U-87MG ATCC
[26] = Induction of apoptosis in human U87 cells assessed as late apoptotic cells at 5 uM incubated for 48 hrs by Annexin-V/PI staining based flow cytometry (Rvb= 2.97%); format: functional, U-87MG ATCC
[27] = Induction of apoptosis in human U87 cells assessed as late apoptotic cells at 10 uM incubated for 48 hrs by Annexin-V/PI staining based flow cytometry (Rvb= 2.97%); format: functional, U-87MG ATCC
[28] = Induction of apoptosis in human U87 cells assessed as late apoptotic cells at 20 uM incubated for 48 hrs by Annexin-V/PI staining based flow cytometry (Rvb= 2.97%); format: functional, U-87MG ATCC
[29] = Induction of apoptosis in human U87 cells assessed as viable cells at 0.1 uM incubated for 48 hrs by Annexin-V/PI staining based flow cytometry (Rvb= 93.16%); format: functional, U-87MG ATCC; settings: U-87 MG, read-out: Activity
[30] = Induction of apoptosis in human U87 cells assessed as viable cells at 1 uM incubated for 48 hrs by Annexin-V/PI staining based flow cytometry (Rvb= 93.16%); format: functional, U-87MG ATCC; settings: U-87 MG, read-out: Activity
[31] = Induction of apoptosis in human U87 cells assessed as viable cells at 5 uM incubated for 48 hrs by Annexin-V/PI staining based flow cytometry (Rvb= 93.16%); format: functional, U-87MG ATCC; settings: U-87 MG, read-out: Activity
[32] = Induction of apoptosis in human U87 cells assessed as viable cells at 10 uM incubated for 48 hrs by Annexin-V/PI staining based flow cytometry (Rvb= 93.16%); format: functional, U-87MG ATCC; settings: U-87 MG, read-out: Activity
[33] = Induction of apoptosis in human U87 cells assessed as viable cells at 20 uM incubated for 48 hrs by Annexin-V/PI staining based flow cytometry (Rvb= 93.16%); format: functional, U-87MG ATCC; settings: U-87 MG, read-out: Activity
U-87MG ATCC [34] = assay: Induction of cell cycle arrest in human U87 cells assessed increase of cells in S phase at 1 to 10 uM incubated for 48 hrs by flow cytometry; format: functional, cell-based; settings: dose 1-10 µM
U-87MG ATCC [35] = assay: Induction of cell cycle arrest in human U87 cells assessed decrease of cells in G2 phase at 1 to 10 uM incubated for 48 hrs by flow cytometry; format: functional, cell-based; settings: dose 1-10 µM

T1 sequence (P09619 33-1106 limits assumed): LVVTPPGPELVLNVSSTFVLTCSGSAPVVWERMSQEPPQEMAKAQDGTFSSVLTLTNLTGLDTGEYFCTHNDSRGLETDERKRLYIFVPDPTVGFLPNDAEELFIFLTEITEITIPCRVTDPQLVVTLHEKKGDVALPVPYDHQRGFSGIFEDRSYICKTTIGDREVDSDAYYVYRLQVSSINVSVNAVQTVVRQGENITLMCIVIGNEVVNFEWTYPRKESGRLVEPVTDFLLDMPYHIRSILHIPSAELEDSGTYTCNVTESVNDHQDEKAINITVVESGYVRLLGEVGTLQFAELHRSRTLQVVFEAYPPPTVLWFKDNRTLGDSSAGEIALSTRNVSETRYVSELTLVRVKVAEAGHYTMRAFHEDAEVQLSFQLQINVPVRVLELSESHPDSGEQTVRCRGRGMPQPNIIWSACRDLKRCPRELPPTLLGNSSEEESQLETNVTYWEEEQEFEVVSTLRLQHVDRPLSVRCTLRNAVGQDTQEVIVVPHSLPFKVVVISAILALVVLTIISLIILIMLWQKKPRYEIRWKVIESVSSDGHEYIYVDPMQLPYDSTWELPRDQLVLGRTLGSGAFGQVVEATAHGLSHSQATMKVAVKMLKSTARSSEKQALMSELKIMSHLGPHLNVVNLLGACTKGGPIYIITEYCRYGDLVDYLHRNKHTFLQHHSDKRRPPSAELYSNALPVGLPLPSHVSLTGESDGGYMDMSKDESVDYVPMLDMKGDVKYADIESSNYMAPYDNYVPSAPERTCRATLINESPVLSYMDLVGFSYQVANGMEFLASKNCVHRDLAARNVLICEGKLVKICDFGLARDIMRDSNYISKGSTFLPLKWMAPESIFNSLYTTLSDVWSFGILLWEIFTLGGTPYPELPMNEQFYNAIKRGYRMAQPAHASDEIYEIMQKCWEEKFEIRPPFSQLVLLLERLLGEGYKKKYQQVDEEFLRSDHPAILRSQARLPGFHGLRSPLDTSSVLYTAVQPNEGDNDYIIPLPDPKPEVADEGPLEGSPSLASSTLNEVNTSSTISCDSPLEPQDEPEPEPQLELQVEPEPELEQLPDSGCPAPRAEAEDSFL
T1 sequence (P40337 whole entry partner): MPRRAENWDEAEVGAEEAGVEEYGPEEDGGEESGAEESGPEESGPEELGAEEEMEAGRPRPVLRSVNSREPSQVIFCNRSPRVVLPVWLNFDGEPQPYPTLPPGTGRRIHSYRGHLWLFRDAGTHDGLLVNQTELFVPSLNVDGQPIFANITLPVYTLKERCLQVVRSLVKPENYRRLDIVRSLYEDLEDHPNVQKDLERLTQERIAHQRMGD
Chain of Platelet-derived growth factor receptor beta (Homo sapiens) (P09619 whole entry): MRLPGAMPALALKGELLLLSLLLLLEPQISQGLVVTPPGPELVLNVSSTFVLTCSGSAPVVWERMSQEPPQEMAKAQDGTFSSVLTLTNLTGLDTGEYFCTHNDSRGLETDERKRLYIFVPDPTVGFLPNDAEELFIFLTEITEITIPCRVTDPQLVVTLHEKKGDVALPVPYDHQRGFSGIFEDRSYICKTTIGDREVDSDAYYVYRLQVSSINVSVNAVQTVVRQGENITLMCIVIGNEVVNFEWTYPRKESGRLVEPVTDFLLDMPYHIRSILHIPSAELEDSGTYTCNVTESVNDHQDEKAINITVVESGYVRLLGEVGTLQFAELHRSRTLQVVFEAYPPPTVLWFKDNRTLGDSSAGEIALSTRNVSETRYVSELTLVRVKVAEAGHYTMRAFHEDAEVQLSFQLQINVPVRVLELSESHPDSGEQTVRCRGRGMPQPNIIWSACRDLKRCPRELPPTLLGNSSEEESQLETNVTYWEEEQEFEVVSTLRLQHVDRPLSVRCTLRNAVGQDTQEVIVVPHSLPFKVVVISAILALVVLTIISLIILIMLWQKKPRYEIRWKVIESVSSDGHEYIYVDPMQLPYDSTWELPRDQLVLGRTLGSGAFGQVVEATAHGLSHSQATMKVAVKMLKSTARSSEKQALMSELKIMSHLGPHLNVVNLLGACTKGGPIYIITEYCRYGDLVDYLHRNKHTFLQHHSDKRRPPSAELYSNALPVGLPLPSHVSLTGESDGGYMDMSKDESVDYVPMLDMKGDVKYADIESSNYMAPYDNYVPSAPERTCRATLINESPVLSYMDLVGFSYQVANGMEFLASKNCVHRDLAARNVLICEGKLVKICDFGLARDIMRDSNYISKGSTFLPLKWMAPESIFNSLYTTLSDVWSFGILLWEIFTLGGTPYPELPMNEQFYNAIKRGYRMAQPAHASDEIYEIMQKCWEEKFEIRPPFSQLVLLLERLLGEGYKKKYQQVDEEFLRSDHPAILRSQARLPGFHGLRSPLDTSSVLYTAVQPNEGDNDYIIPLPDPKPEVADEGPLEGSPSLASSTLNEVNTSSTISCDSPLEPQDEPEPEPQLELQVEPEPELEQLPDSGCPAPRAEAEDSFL
Chain of Serine/threonine-protein kinase B-raf (Homo sapiens) (P15056 whole entry): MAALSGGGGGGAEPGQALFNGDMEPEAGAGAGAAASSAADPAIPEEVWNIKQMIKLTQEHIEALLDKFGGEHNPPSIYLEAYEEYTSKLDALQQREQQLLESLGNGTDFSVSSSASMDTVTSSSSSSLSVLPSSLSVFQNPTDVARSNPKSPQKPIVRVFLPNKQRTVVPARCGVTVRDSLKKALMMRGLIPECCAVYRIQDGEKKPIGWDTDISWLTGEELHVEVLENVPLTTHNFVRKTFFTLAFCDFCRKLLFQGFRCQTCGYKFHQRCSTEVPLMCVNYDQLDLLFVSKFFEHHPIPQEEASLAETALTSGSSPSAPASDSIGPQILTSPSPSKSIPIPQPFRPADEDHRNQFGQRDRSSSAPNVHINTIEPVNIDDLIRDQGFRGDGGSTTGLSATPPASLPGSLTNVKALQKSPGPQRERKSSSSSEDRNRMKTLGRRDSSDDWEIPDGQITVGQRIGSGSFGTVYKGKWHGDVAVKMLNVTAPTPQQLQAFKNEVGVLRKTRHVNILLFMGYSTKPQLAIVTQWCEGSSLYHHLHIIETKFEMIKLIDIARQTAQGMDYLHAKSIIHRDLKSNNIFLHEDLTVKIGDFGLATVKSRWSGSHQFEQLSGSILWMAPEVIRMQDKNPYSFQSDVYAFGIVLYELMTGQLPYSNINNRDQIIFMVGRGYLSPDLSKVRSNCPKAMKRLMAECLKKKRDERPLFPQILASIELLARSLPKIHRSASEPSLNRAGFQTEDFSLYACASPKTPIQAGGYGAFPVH

For O=C(CNc1cccc2c1C(=O)N(C1CCC(=O)NC1=O)C2=O)NCCCCNC(=O)c1cc(Oc2ccc(NC(=O)Nc3ccc(Cl)c(C(F)(F)F)c3)cc2)ccn1 (stereo unspecified), which Activity (HEK293) is on record?
The Activity was “Non-Toxic”.

And the Activity [1]?
The Activity was “Dose-Dependent Effect”.

What about the Activity [2] of the same compound?
The Activity was “Active”.

And the Activity [3]?
The Activity was > 70%.

What about the Activity [4] of the same compound?
Its Activity is “Active”.

For Cc1ncsc1-c1ccc(CNC(=O)[C@@H]2C[C@H](O)CN2C(=O)[C@@H](NC(=O)CCCNC(=O)c2cc(Oc3ccc(NC(=O)Nc4ccc(Cl)c(C(F)(F)F)c4)cc3)ccn2)C(C)(C)C)cc1, which IC50 (EA.hy 926) is on record?
Its IC50 is > 50 µM.

What about the IC50 (HepG2) of the same compound?
The IC50 was > 50 µM.

And the IC50 [5]?
The IC50 was 20.3 µM.

What about the Activity [6] of the same compound?
Its Activity is “inactive”.

Which IC50 (EA.hy 926) does the source give for CNC(=O)c1cc(Oc2ccc(NC(=O)Nc3ccc(Cl)c(C(F)(F)F)c3)cc2)ccn1 [SORAFENIB] here?
Its IC50 is 11 µM.

What about the IC50 (HepG2) of the same compound?
Its IC50 is 2.69 µM.

What about the IC50 [5] of the same compound?
Its IC50 is 12.7 µM.

And the Activity (HEK293)?
Its Activity is “Non-Toxic”.

What does the source list for Cc1ncsc1-c1ccc(CNC(=O)[C@@H]2C[C@@H](O)CN2C(=O)[C@@H](NC(=O)CCCNC(=O)c2cc(Oc3ccc(NC(=O)Nc4ccc(Cl)c(C(F)(F)F)c4)cc3)ccn2)C(C)(C)C)cc1?
IC50 [5]: 12.3 µM; Activity (HEK293): Non-Toxic; Activity [1]: Dose-Dependent Effect; Activity [2]: Active; Activity [3]: > 70%; Activity [4]: Active; Activity [7]: Active; Activity [8]: Dose-Dependent Effect; Activity [9]: Active; Activity [10]: Active; Activity [11]: inactive; Activity [12]: Active; Activity [6]: Active; Activity [13]: inactive; Activity [14]: 0.89%; Activity [15]: 0.49%; Activity [16]: 0.63%; Activity [17]: 0.85%; Activity [18]: 1.63%; Activity [19]: 2.02%; Activity [20]: 1.66%; Activity [21]: 1.66%; Activity [22]: 2.49%; Activity [23]: 3.25%; Activity [24]: 1.82%; Activity [25]: 1.71%; Activity [26]: 1.59%; Activity [27]: 2.03%; Activity [28]: 4.56%; viability at 0.1 µM [29]: 95.3%; viability at 1 µM [30]: 96.2%; viability at 5 µM [31]: 96.1%; viability at 10 µM [32]: 94.6%; viability at 20 µM [33]: 90.6%; Activity (U-87MG ATCC [34]): Active; Activity (U-87MG ATCC [35]): Active

For O=C1CCC(N2Cc3c(NC(=O)CCCNC(=O)c4cc(Oc5ccc(NC(=O)Nc6ccc(Cl)c(C(F)(F)F)c6)cc5)ccn4)cccc3C2=O)C(=O)N1 (stereo unspecified), which IC50 (EA.hy 926) is on record?
Its IC50 is 13.4 µM.

What about the IC50 (HepG2) of the same compound?
Its IC50 is 0.039 µM.

And the Activity (HEK293)?
Its Activity is “Non-Toxic”.

And the Activity [1]?
Its Activity is “Dose-Dependent Effect”.

What about the Activity [2] of the same compound?
The Activity was “Active”.

And the Activity [3]?
The Activity was > 70%.

What about the Activity [4] of the same compound?
Its Activity is “Active”.
